# Assay results published in US4184849A, “Mixed agglutination” (Technicon Instruments Corporation, priority 1977, dated 1980).
# B1: hPL: human placental lactogen (protein, UniProt P0DML2 27-217, looked up)
# Chorionic somatomammotropin …: VQTVPLSRLFDHAMLQAHRAHQLAIDTYQEFEETYIPKDQKYSFLHDSQTSFCFSDSIPTPSNMEETQQKSNLELLRISLLLIESWLEPVRFLRSMFANNLVYDTSDSDDYHLLKDLEEGIQTLMGRLEDGSRRTGQILKQTYSKFDTNSHNHDALLKNYGLLYCFRKDMDKVETFLRMVQCRSVEGSCGF
# How the values were obtained:
# Assay type in all cases: binding
# sheep anti-digoxin serum [1] = test: latex immunoassay of digoxin read by turbidimetry (optical density at 400 nm)
# sheep anti-digoxin serum [2] = test: Example 3: digoxin mixed agglutination with equal-sized or different-sized latex
# Protocol: (§1) Latex particles (0.09μ diameter, polystyrene, Dow Chemical Co.) as a 10% by weight suspension as supplied) was diluted 20-fold in dilute glycine-buffered saline (dGBS-20 mM glycine, 34 mM NaCl, pH 9) containing 0.2 mg/ml of the Rivanol-soluble fraction (prepared by the method of Stastny and Horejsi, Clin. Chim. Acta (1961), 6, 782) of sheep anti-digoxin serum, and incubated at room temperature for 30 minutes. 1/10th volume of 10 mg bovine serum albumin (bSA) per ml. dGBS was then added (to ensure that the latex was completely coated with protein), and after a further 30 minutes incubation, the coated latex was washed twice by centrifugation and resuspended in dGBS. Finally, the coated latex was resuspended as a 0.5% suspension in GBS (0.1 M glycine, 0.17 M NaCl, pH 9) containing 1 mg bSA/ml.
# (§2) The same procedure was followed as in (a) except that the latex used was of 1.1μ diameter and incubation was performed at an Ag-conjugate concentration of 4μg/ml, followed by the addition of 1/10 volume of 10 mg/ml transferrin. The Ag-conjugate was prepared by the oxidative coupling of digoxin and ethylene glycol followed by reductive coupling of this complex to the protein. 50 mg digoxin dissolved in 2 ml absolute alcohol was incubated for 25 minutes with 2 ml 0.1 M NalO4, then 60 μl of ethylene glycol was added for a further 5 minutes incubation. This reaction mixture was then added to a solution of 60 mg human transferrin in 2 ml water, brought to pH 9.5 by addition of 5% Na2 CO3, and incubated for 45 minutes. 30 mg NaBH4 freshly dissolved in 2 ml water was added and incubation was continued for 3 hours. At the end of this time, the pH of the reaction mixture was reduced to 6.5 by addition of 1 M HCOOH to destroy any unreacted NaBH4, and after a further hour of incubation, 1 M NH4 OH was added to raise the pH to 8.5, and the preparation was dialysed against running water for 2 days at 4° C. (all other operations were at room temperature).
# (§3) Sera used for the assay of digoxin were first heated with acid to reduce serum intereference. 25 μl of serum was heated to 56° C. for 10 minutes with 25 μl of 0.1 N HCl, then made alkaline by the addition of 10 μl 2 M Na2 CO3. To these heated sera were added 25 μl of Ab-latex (diluted 1:10 with GBS containing 1 mg bSA/ml) and 25 μl of conjugate-latex (diluted 1:4 with GBS containing 1 mg human transferrin/ml). They were then incubated in vertically-positioned tubes agitated horizontally on a shaking incubator for 15 minutes at room temperature. At the end of this time, the tube contents were diluted with 5 ml GBS and after a further 20-fold dilution with GBS containing 0.01% Tween 20, passed through the flowcell of a Technicon Autocounter at 2 ml/min. The relative numbers of unagglutinated (monomer) latex particles in each sample were determined (as also may be the relative numbers of agglutinated particles) by selective optical counting.
# Example 1 was repeated using latex particles of the same (as opposed to different) size and the following results were obtained: […]
# sheep anti-digoxin serum [3] = test: assay of digoxin by mixed agglutination of Ab-latex and conjugate-latex, selective optical counting of unagglutinated particles; conditions: Table 1
# Protocol: This Example illustrates the assay of digoxin.
# as §1, §2, §3
# In the selective optical counting of particles, the amount of light scattered by a particle is dependent on the size of the particle; in turn, the electronic impulse generated in the photocell will be proportional to the size of the particle, and particles of different sizes may be counted separately. Table 2 illustrates the improvement in precision of determination (by providing a more extended range for the standard curve) that may be obtained by counting only unagglutinated particles (monomers) as opposed to counting all particles (total). […]
# sheep anti-digoxin serum [4] = test: as above; conditions: Table 3
# [5] = system: rabbit anti-thyroxine (T4) serum; test: assay of thyroxine by mixed agglutination; conditions: maximum = Ag-latex alone
# Protocol: This Example illustrates the assay of thyroxine. […] After incubation at 0° for 1 hour, 250 μl of 25% ethanolamine in PBS was added, and the incubation prolonged for 30 minutes. The latex was then washed twice by centrifugation and resuspension in fresh PBS (1 ml each time), and then dialysed for 16 hours at 4° against 1 l PBS. […] The method of this latex preparation was exactly the same as for the assay of digoxin (Example 1) except that the Ab was from rabbit anti-thyroxine (T4) serum. […] The maximum value in this case was for the Ag-latex alone, all the above values being found in the presence of Ag-latex as well.
# [6] = latex immunoassay of hPL, comparison of counting methods; conditions: 2.5 ngs hPL/ml
# Source text: In the selective optical counting of particles, the amount of light scattered by a particle is dependent on the size of the particle; in turn, the electronic impulse generated in the photocell will be proportional to the size of the particle, and particles of different sizes may be counted separately. Table 2 illustrates the improvement in precision of determination (by providing a more extended range for the standard curve) that may be obtained by counting only unagglutinated particles (monomers) as opposed to counting all particles (total). The Table also illustrates the great increase in sensitivity that may be realized by calculating the ratio of unagglutinated to agglutinated particles (monomer/polymer ratio). By counting particles at all, an increase in sensitivity and precision may be realized by comparison with other methods of end-point determination.
molecule,measurement,setting,value
"C[C@H]1O[C@@H](O[C@H]2[C@@H](O)C[C@H](O[C@H]3[C@@H](O)C[C@H](O[C@H]4CC[C@@]5(C)[C@H](CC[C@@H]6[C@@H]5C[C@@H](O)[C@]5(C)[C@@H](C7=CC(=O)OC7)CC[C@]65O)C4)O[C@@H]3C)O[C@@H]2C)C[C@H](O)[C@@H]1O [Digoxin, digoxin]",Turbidity,sheep anti-digoxin serum [1]; digoxin 0.31 ng/ml in serum,74 percentage of that found in th
same,Turbidity,sheep anti-digoxin serum [1]; digoxin 0.625 ng/ml in serum,71 percentage of that found in th
same,Turbidity,sheep anti-digoxin serum [1]; digoxin 1.25 ng/ml in serum,82 percentage of that found in th
same,Turbidity,sheep anti-digoxin serum [1]; digoxin 2.5 ng/ml in serum,100 percentage of that found in th
same,Turbidity,sheep anti-digoxin serum [1]; digoxin 5.0 ng/ml in serum,100 percentage of that found in th
same,Unagglutinated Particles (as % of maximum),"sheep anti-digoxin serum [2]; Different-sized latex, digoxin 1 ng/ml in serum",30%
same,Unagglutinated Particles (as % of maximum),"sheep anti-digoxin serum [2]; Different-sized latex, digoxin 4 ng/ml in serum",76%
same,Unagglutinated Particles (as % of maximum),"sheep anti-digoxin serum [2]; Different-sized latex, digoxin 10 ng/ml in serum",100%
same,Unagglutinated Particles (as % of maximum),"sheep anti-digoxin serum [2]; Equal-sized latex, digoxin 1 ng/ml in serum",78%
same,Unagglutinated Particles (as % of maximum),"sheep anti-digoxin serum [2]; Equal-sized latex, digoxin 4 ng/ml in serum",95%
same,Unagglutinated Particles (as % of maximum),"sheep anti-digoxin serum [2]; Equal-sized latex, digoxin 10 ng/ml in serum",100%
same,Unagglutinated Particles (as % of maximum),sheep anti-digoxin serum [3]; digoxin 0.31 ng/ml in serum,40%
same,Unagglutinated Particles (as % of maximum),sheep anti-digoxin serum [3]; digoxin 0.625 ng/ml in serum,44%
same,Unagglutinated Particles (as % of maximum),sheep anti-digoxin serum [3]; digoxin 1.25 ng/ml in serum,63%
same,Unagglutinated Particles (as % of maximum),sheep anti-digoxin serum [3]; digoxin 2.5 ng/ml in serum,90%
same,Unagglutinated Particles (as % of maximum),sheep anti-digoxin serum [3]; digoxin 5.0 ng/ml in serum,100%
same,Particle count (monomers),sheep anti-digoxin serum [4]; digoxin 0.31 ng/ml in serum,40 percentage of that found in th
same,Particle count (monomers),sheep anti-digoxin serum [4]; digoxin 0.625 ng/ml in serum,44 percentage of that found in th
same,Particle count (monomers),sheep anti-digoxin serum [4]; digoxin 1.25 ng/ml in serum,63 percentage of that found in th
same,Particle count (monomers),sheep anti-digoxin serum [4]; digoxin 2.5 ng/ml in serum,90 percentage of that found in th
same,Particle count (monomers),sheep anti-digoxin serum [4]; digoxin 5.0 ng/ml in serum,100 percentage of that found in th
"N[C@@H](Cc1cc(I)c(Oc2cc(I)c(O)c(I)c2)c(I)c1)C(=O)O [T4, thyroxine]",Particle concentration (% maximum),[5]; 10 ng T4/ml serum,51.5%
same,Particle concentration (% maximum),[5]; 50 ng T4/ml serum,59.5%
same,Particle concentration (% maximum),[5]; 200 ng T4/ml serum,89%
B1,Monomer/polymer ratio,[6],81 percentage of that obtained in
